Series [1] in a line: Determination of serum levels after oral administration in rats (disc method). In kind it is in vivo, SD strain. Particulars: rat, 100 mg/kg orally, fasted male SD rats, read-out: Mean Serum Level. As for the experimental part: (2) Test 2: Determination of serum levels after oral administration of anti-microbial agents in rats
6 weeks old male rats, SD strain, each weighing 160-230 g.
The test compound A (100 mg/kg) was given orally to rats which had been fasted overnight. At specified intervals, the rats were anethetized with chloroform and blood samples were collected from the heart. The anti-microbial levels in each serum sample were determined by the disc method using standard solutions prepared with serum from rats.

Series [2] has as its system Batilus subtilis ATCC 6633. The experiment in a line: In vitro antimicrobial activity, two-fold agar-plate dilution method (MIC). It is filed as cell-based. Conditions: 37° C. for 20 hours, HI-agar; for MIC: 20 h, read-out: minimal inhibitory concentration (MIC). As for the experimental part:
(§1) In vitro Antimicrobial activity was determined by the two-fold agar-plate dilution method as described below.
(§2) One loopful of an overnight culture of each test strain in Tripticase-soy broth (approximately 10^8 viable cells per ml) was streaked on heart infusion agar (HI-agar containing graded concentrations of antimicrobial agents, and the minimal inhibitory concentration (MIC) was expressed in term of μg/ml after incubation at 37° C. for 20 hours.

For series [3], the system named is Staphylococcus aureus 209P JC-1. The series is described as above. Conditions: 37° C. for 20 hours, HI-agar; for MIC: Staphylococcus aureus, 209P, 20 h, read-out: minimal inhibitory concentration (MIC). In kind it is cell-based. Here is the method:
as §1, §2

The test system of another series is Escherichia coli 29. The experiment in a line: Protecting effect in experimental mice infection. In kind it is in vivo, ICR strain; Escherichia coli. Conditions: Escherichia coli 29 injected intraperitoneally; oral dose one hour after injection; 4 days observation; probit method. From the text: (3) Test 3: Protecting effect in experimental mice infection 4-weeks old male mice, ICR strain, each weighing 20.0±1.5 g. 1.3×10^4 cells of pathogenic microorganisms, suspended in 2.5% mucin, were intraperitoneally injected. One hour after the injection, Compound A was orally given.

The test system of a further series is Proteus mirabilis 18. The series can be described thus: In vitro antimicrobial activity, two-fold agar-plate dilution method (MIC). Conditions: 37° C. for 20 hours, HI-agar, read-out: minimal inhibitory concentration (MIC). In kind it is cell-based. As for the experimental part:
as §1, §2

A further series relates to Proteus mirabilis 1. The description is as above. Particulars: 37° C. for 20 hours, HI-agar, read-out: minimal inhibitory concentration (MIC). In kind it is cell-based. Here is the method: as §1, §2
The test system of a further series is Proteus vulgaris 2. The series is described as above. In kind it is cell-based. Conditions: 37° C. for 20 hours, HI-agar, read-out: minimal inhibitory concentration (MIC). As for the experimental part: as §1, §2

Converted amounts (≈) assume the structure as drawn.

Take `C=CC1=C(C(=O)O)N2C(=O)C(NC(=O)[C@H](N)c3cccc(NS(C)(=O)=O)c3)[C@H]2SC1` (stereo partly drawn) [Compound A, 7-[2-(3-Methanesulfonamidophenyl)-D-glycinamido]-3-vinyl-3-cephem-4-carboxylic acid]: in series [1] (1 hour), the concentration at 1 h came to 38.5 µg/mL. Moreover, in series [1] (2 hours), the concentration at 2 h came to 34.9 µg/mL. Also, the concentration at 4 h in series [1] (4 hours) amounted to 31 µg/mL. In addition, the concentration at 6 h in series [1] (6 hours) turned out to be 28.8 µg/mL. Moreover, the MIC in series [2] was 0.1 mg/L (≈ 0.221 µM); in series [3], 1.56 mg/L (≈ 3.45 µM). In the series on Escherichia coli 29, the ED50 value is recorded as 0.480 mg/mouse.

On to `C=CC1=C(C(=O)O)N2C(=O)C(NC(=O)Cc3csc(N)n3)[C@H]2SC1` (stereo partly shown) [Compound B, 7-[2-(2-Aminothiazol-4-yl)acetamido]-3-vinyl-3-cephem-4-carboxylic acid], for which, in series [2], the “minimal inhibitory concentration (MIC)” value came out at 1.56 mg/L (≈ 4.26 µM). The MIC in series [3] was determined as 1.56 mg/L (≈ 4.26 µM).

As for `C=CC1=C(C(=O)O)N2C(=O)C(NC(=O)C(O)c3csc(N)n3)[C@H]2SC1` (stereo partly shown) [Compound C, 7-[2-(2-Aminothiazol-4-yl)glycolamido]-3-vinyl-3-cephem-4-carboxylic acid], the MIC in series [2] amounted to 0.78 mg/L (≈ 2.04 µM); in series [3] it was 1.56 mg/L (≈ 4.08 µM).

`C=CC1=C(C(=O)O)N2C(=O)C(NC(=O)Cc3cnc(NC=O)s3)[C@H]2SC1` (stereo partly shown) [Compound D, 7-[2-(2-Formamidothiazol-5-yl)acetamido]-3-vinyl-3-cephem-4-carboxylic aci d]: the MIC was found to be 0.2 mg/L (≈ 0.507 µM) in series [2] and 0.39 mg/L (≈ 0.989 µM) in series [3].

In the case of `C=CC1=C(C(=O)O)N2C(=O)C(NC(=O)Cc3cnc(N)s3)[C@H]2SC1` (stereo partly shown) [Compound E, 7-[2-(2-Aminothiazol-5-yl)acetamido]-3-vinyl-3-cephem-4-carboxylic acid], the MIC in series [2] is 0.05 mg/L (≈ 0.136 µM); in series [3], 0.78 mg/L (≈ 2.13 µM).

Take `C=CC1=C(C(=O)O)N2C(=O)C(NC(=O)Cc3cnc(NS(C)(=O)=O)s3)[C@H]2SC1` (stereo partly shown) [Compound F, 7-[2-(2-Methanesulfonamidothiazol-5-yl)acetamido]-3-vinyl-3-cephem-4-carboxylic acid]: the MIC in series [2] was found to be 0.39 mg/L (≈ 0.877 µM); in series [3], 1.56 mg/L (≈ 3.51 µM).

With `Br.C=CC1=C(C(=O)O)N2C(=O)C(NC(=O)Cc3csc(NC(=N)N)n3)[C@H]2SC1` (stereo partly shown) [Compound G, 7-[2-(2-Guanidinothiazol-4-yl)acetamido]-3-vinyl-3-cephem-4-carboxylic aci d hydrobromide], the MIC in series [2] came to 0.1 mg/L; in series [3], 0.39 mg/L.

Turning to `C=CC1=C(C(=O)O)N2C(=O)C(NC(=O)Cc3csc(N)n3)[C@H]2SC1` (stereo partly shown) [Compound H, 7-[2-(2-Aminothiazol-4-yl)acetamido]-3-vinyl-3-cephem-4-carboxylic acid], the “minimal inhibitory concentration (MIC)” value in series [2] stood at 0.39 mg/L (≈ 1.06 µM); in series [3], 0.78 mg/L (≈ 2.13 µM).

On to `C=CC1=C(C(=O)O)N2C(=O)C(NC(=O)/C(=N\OC)c3csc(N)n3)C2SC1` (stereo not drawn) [Compound I, 7-[2-(2-Aminothiazol-4-yl)-2-methoxyiminoacetamido]-3-vinyl-3-cephem-4-carboxylic acid (syn isomer)], for which the MIC with Proteus mirabilis 18 was under 0.025 mg/L; in the series on Proteus mirabilis 1 it was 0.05 mg/L (≈ 0.122 µM).

For `C=CC1=C(C(=O)O)N2C(=O)C(NC(=O)/C(=N\OCC)c3csc(N)n3)C2SC1` (stereo not drawn) [Compound J, 7-[2-(2-Aminothiazol-4-yl)-2-ethoxyiminoacetamido]-3-vinyl-3-cephem-4-carboxylic acid (syn isomer)], the MIC in series [2] was 0.78 mg/L (≈ 1.84 µM); in series [3], 1.56 mg/L (≈ 3.68 µM).

As for `C=CC1=C(C(=O)O)N2C(=O)C(NC(=O)/C(=N\OCCCCCC)c3csc(N)n3)C2SC1` (stereo not drawn) [Compound K, 7-[2-(2-Aminothiazol-4-yl)-2-hexyloxyiminoacetamido]-3-vinyl-3-cephem-4-carboxylic acid (syn isomer)], the MIC in series [2] amounted to 0.78 mg/L (≈ 1.63 µM); in series [3], 1.56 mg/L (≈ 3.25 µM).

On to `C=CC1=C(C(=O)O)N2C(=O)C(NC(=O)/C(=N\OCC(=O)OC[C@H](N)C(=O)O)c3csc(N)n3)C2SC1` (stereo partly drawn) [Compound L, 7-[2-(2-Aminothiazol-4-yl)-2-(L-2-amino-2-carboxyethoxycarbonylmethoxyimino)acetamido]-3-vinyl-3-cephem-4-carboxylic acid (syn isomer)], for which the MIC in the series on Proteus mirabilis 18 and in the series with Proteus mirabilis 1 was 0.05 mg/L (≈ 0.0925 µM) in each case.

In the case of `C=CC1=C(C(=O)O)N2C(=O)C(NC(=O)/C(=N\OCC(=O)O)c3csc(N)n3)C2SC1` (stereo not drawn) [Compound M, 7-[2-(2-Aminothiazol-4-yl)-2-carboxymethoxyiminoacetamido]-3-vinyl-3-cephem-4-carboxylic acid (syn isomer)], the MIC in the series with Proteus mirabilis 18 and with Proteus mirabilis 1 was under 0.025 mg/L in each case.

As for `C=CC1=C(C(=O)O)N2C(=O)C(NC(=O)/C(=N\OCC(=O)O)c3nc(N)sc3Cl)C2SC1` (stereo not drawn) [Compound N, 7-[2-(2-Amino-5-chlorothiazol-4-yl)-2-carboxymethoxyiminoacetamido]-3-vinyl-3-cephem-4-carboxylic acid (syn isomer)], the MIC in the series on Proteus mirabilis 18 amounted to 0.05 mg/L (≈ 0.102 µM); with Proteus mirabilis 1 it was 0.2 mg/L (≈ 0.41 µM); with Proteus vulgaris 2 it was 0.05 mg/L (≈ 0.102 µM).

For the compound `C=CC1=C(C(=O)O)N2C(=O)C(NC(=O)/C(=N\OC/C=C/C(=O)O)c3csc(N)n3)C2SC1` (stereo not drawn) [Compound O, 7-[2-(2-Aminothiazol-4-yl)-2-(trans-3-carboxyallyloxyimino)acetamido]-3-vinyl-3-cephem-4-carboxylic acid (syn isomer)], the figures for the MIC in the series on Proteus mirabilis 18, with Proteus mirabilis 1 and in the series on Proteus vulgaris 2 were 0.1 mg/L (≈ 0.209 µM), 0.1 mg/L (≈ 0.209 µM) and under 0.025 mg/L, respectively.

Consider `C=CC1=C(C(=O)O)N2C(=O)C(NC(=O)/C(=N\OCCCC(=O)O)c3csc(N)n3)C2SC1` (stereo not drawn) [Compound P, 7-[2-(2-Aminothiazol-4-yl)-2-(3-carboxypropoxyimino)acetamido]-3-vinyl-3-cephem-4-carboxylic acid (syn isomer)], for which the MIC in the series on Proteus mirabilis 18 is 0.05 mg/L (≈ 0.104 µM); with Proteus mirabilis 1 it was 0.1 mg/L (≈ 0.208 µM); in the series with Proteus vulgaris 2, under 0.025 mg/L.
